Measured values as given in ChEMBL document CHEMBL3885881, “DrugMatrix”.

Organism: Rattus norvegicus
Assay: DrugMatrix - Regimen: Daily Repeat
Format: toxicity, organism-based, Sprague-Dawley
Set-up: regimen Daily Repeat, gender Male, age 6-8 weeks
Details: in vivo, po, route oral GAVAGE, vehicle 100 % WATER; for TOTAL PROTEIN / ALANINE AMINOTRANSFERASE / ALBUMIN / ALKALINE PHOSPHATASE / ASPARTATE AMINOTRANSFERASE / BLOOD UREA NITROGEN / CHLORIDE / CHOLESTEROL / CREATINE PHOSPHOKINASE / CREATININE / GLUCOSE / PHOSPHORUS / POTASSIUM / SODIUM / TOTAL BILIRUBIN: tissue Plasma; for BASOPHIL / EOSINOPHIL / ERYTHROCYTE COUNT / HEMATOCRIT / HEMOGLOBIN / LEUKOCYTE COUNT / LYMPHOCYTE / MEAN CORPUSCULAR HEMOGLOBIN / MEAN CORPUSCULAR HEMOGLOBIN CONCENTRATION / MEAN CORPUSCULAR VOLUME / MONOCYTE / NEUTROPHIL / PLATELET COUNT: tissue Blood
[1] = 53.5 mg/kg, 120 h, dose level Low, time 5 day
[2] = 535 mg/kg, 72 h, dose level High, time 3 day
[3] = 535 mg/kg, 120 h, dose level High, time 5 day

CN1C(=O)OC(C)(C)C1=O [TRIMETHADIONE]
TOTAL PROTEIN (53.5 mg/kg, 72 h, dose level Low, time 3 day): 6.65 G/DL | BASOPHIL [1]: 0% | EOSINOPHIL [1]: 0% | ERYTHROCYTE COUNT [1]: 6.06 x10E6/uL | HEMATOCRIT [1]: 36.17% | HEMOGLOBIN [1]: 14.4 G/DL | LEUKOCYTE COUNT [1]: 18.23 x10E3/uL | LYMPHOCYTE [1]: 83.33% | MEAN CORPUSCULAR HEMOGLOBIN [1]: 23.8 pg | MEAN CORPUSCULAR HEMOGLOBIN CONCENTRATION [1]: 39.83 G/DL | MEAN CORPUSCULAR VOLUME [1]: 59.7 fL | MONOCYTE [1]: 2.33% | NEUTROPHIL [1]: 14.33% | PLATELET COUNT [1]: 1288 x10E3/uL | ALANINE AMINOTRANSFERASE [1]: 36.67 u/L | ALBUMIN [1]: 3.57 G/DL | ALKALINE PHOSPHATASE [1]: 314 u/L | ASPARTATE AMINOTRANSFERASE [1]: 59 u/L | BLOOD UREA NITROGEN [1]: 12 mg/dL | CHLORIDE [1]: 102.33 MEQ/L | CHOLESTEROL [1]: 70.67 mg/dL | CREATINE PHOSPHOKINASE [1]: 109.33 u/L | CREATININE [1]: 0.6 mg/dL | GLUCOSE [1]: 190.67 mg/dL | PHOSPHORUS [1]: 13.13 mg/dL | POTASSIUM [1]: 6.6 MEQ/L | SODIUM [1]: 151.33 MEQ/L | TOTAL BILIRUBIN [1]: 0.3 mg/dL | TOTAL PROTEIN [1]: 6.5 G/DL | BASOPHIL [2]: 0% | EOSINOPHIL [2]: 0% | ERYTHROCYTE COUNT [2]: 6.23 x10E6/uL | HEMATOCRIT [2]: 37.4% | HEMOGLOBIN [2]: 14.63 G/DL | LEUKOCYTE COUNT [2]: 13.2 x10E3/uL | LYMPHOCYTE [2]: 82.67% | MEAN CORPUSCULAR HEMOGLOBIN [2]: 23.5 pg | MEAN CORPUSCULAR HEMOGLOBIN CONCENTRATION [2]: 39.13 G/DL | MEAN CORPUSCULAR VOLUME [2]: 60 fL | MONOCYTE [2]: 5.67% | NEUTROPHIL [2]: 11.67% | PLATELET COUNT [2]: 1178.33 x10E3/uL | ALANINE AMINOTRANSFERASE [2]: 42.67 u/L | ALBUMIN [2]: 3.63 G/DL | ALKALINE PHOSPHATASE [2]: 285 u/L | ASPARTATE AMINOTRANSFERASE [2]: 71 u/L | BLOOD UREA NITROGEN [2]: 12.67 mg/dL | CHLORIDE [2]: 98.33 MEQ/L | CHOLESTEROL [2]: 72 mg/dL | CREATINE PHOSPHOKINASE [2]: 136.33 u/L | CREATININE [2]: 0.57 mg/dL | GLUCOSE [2]: 181.33 mg/dL | PHOSPHORUS [2]: 12.93 mg/dL | POTASSIUM [2]: 6.83 MEQ/L | SODIUM [2]: 152 MEQ/L | TOTAL BILIRUBIN [2]: 0.27 mg/dL | BASOPHIL [3]: 0% | EOSINOPHIL [3]: 0.33% | ERYTHROCYTE COUNT [3]: 5.77 x10E6/uL | HEMATOCRIT [3]: 33.97% | HEMOGLOBIN [3]: 13.13 G/DL | LEUKOCYTE COUNT [3]: 10.67 x10E3/uL | LYMPHOCYTE [3]: 78.67% | MEAN CORPUSCULAR HEMOGLOBIN [3]: 22.8 pg | MEAN CORPUSCULAR HEMOGLOBIN CONCENTRATION [3]: 38.67 G/DL | MEAN CORPUSCULAR VOLUME [3]: 58.97 fL | MONOCYTE [3]: 2.67% | NEUTROPHIL [3]: 18.33% | PLATELET COUNT [3]: 1123.33 x10E3/uL | ALANINE AMINOTRANSFERASE [3]: 42 u/L | ALBUMIN [3]: 3.67 G/DL | ALKALINE PHOSPHATASE [3]: 272.33 u/L | ASPARTATE AMINOTRANSFERASE [3]: 78.33 u/L | BLOOD UREA NITROGEN [3]: 14.67 mg/dL | CHLORIDE [3]: 99.33 MEQ/L | CHOLESTEROL [3]: 74.33 mg/dL | CREATINE PHOSPHOKINASE [3]: 143.67 u/L | CREATININE [3]: 0.57 mg/dL | GLUCOSE [3]: 180.33 mg/dL | PHOSPHORUS [3]: 13.1 mg/dL | POTASSIUM [3]: 6.6 MEQ/L | SODIUM [3]: 153.33 MEQ/L | TOTAL BILIRUBIN [3]: 0.27 mg/dL | TOTAL PROTEIN [3]: 6.53 G/DL
